Values of other authors, collected in patent US20140088035A1, “TREATING SCHIZOPHRENIA” (THE GENERAL HOSPITAL CORPORATION, priority 2010, published 2014).

Test system: schizophrenia patients
Details: vitamin supplementation regimens; Levine et al. 2006, Godfrey et al. 1990

Compound: Nc1nc2ncc(CNc3ccc(C(=O)N[C@@H](CCC(=O)O)C(=O)O)cc3)nc2c(=O)[nH]1 [folate, pteroyl-L-glutamic acid]
- symptomatic improvement in schizophrenia patients: associated with symptomatic improvement
